Patent US20230125667A1, “NOVEL TDZD ANALOGS AS AGENTS THAT DELAY, PREVENT, OR REVERSE AGE-ASSOCIATED DISEASES AND AS ANTI-CANCER AND ANTILEUKEMIC AGENTS” (United States Government as represented by the Department …, priority 2020, published 2023)

Key:
wild-type nematodes = assay: Lifespan of C. elegans; format: in vivo; conditions: FIG. 8
Protocol: It was previously shown that several interventions that improve age-associated phenotypes also modulate lifespan (Ayyadevara et al. (2017) Antioxid Redox Signal. 27(17): 1383-1396; Ayyadevara et al. (2005) Aging Cell. 4(5): 257-271). The lifespan was assessed in C. elegans, either mock-treated or exposed to TDZD analogues. PNR-962 and BSK-179 extended the lifespan of wild-type nematodes to an identical degree, increasing the mean by roughly 25-30% (P<0.001; FIG. 8).
To obtain synchronized eggs for lifespan studies, worms were maintained for 2 generations, free of contamination and starvation. Healthy, well-fed adult worms from the 2nd generation were then lysed, and eggs placed on plates with appropriate doses of TDZD analogue PNR962, or DMSO vehicle alone (for a final concentration of 0.02% v/v DMSO). At the L4 larval stage, worms were transferred daily to fresh plates for 7 days, and thereafter on alternate days until all the worms are dead. C. elegans that moved spontaneously or responded to gentle prodding were scored as alive. For the mortality computation, worms that were lost for reasons other than natural death were censored. The methods described were adopted from previously described experimental procedures (Ayyadevara, et al. (2016) PIP3-binding proteins promote age-dependent protein aggregation and limit survival in C. elegans. Oncotarget, 7(31): 48870-48886; Bharill, et al. (2013) Extreme Depletion of PIP3 Accompanies the Increased Life Span and Stress Tolerance of PI3K-null C. elegans Mutants. Frontiers in Genetics, 4).

tau hyperphosphorylation = assay: Tau hyperphosphorylation in rat cortical cells; format: cell-based; conditions: FIG. 23
Protocol: Microtubule assembly involves stable tau binding to other proteins in the complex, including tubulin. Hyperphosphorylated tau is readily sequestered into aggregates and generates intracellular neurofibrillary tangles (“tau tangles”). […] The top drugs were tested for impact on tau hyperphosphorylation in rat cortical cells (FIG. 23).
Primary cultures were established from cerebral cortex of E18 rats; under serum-free conditions (Neurobasal/B27) these cultures contain ˜85% neurons, with the remainder comprising astrocytes (˜12% and microglia ˜3%). At the […], triplicate cultures were exposed to the test compounds at the indicated concentrations; a separate triplicate was exposed to vehicle (0.5% DMSO final concentration). After 24 h, cultures were washed once with ice-cold PBS and then scraped in RIPA buffer containing inhibitors of proteases and phosphatases. Lysates were centrifuged at 14,000 g at 4° C. for 7 min. Supernatants were removed and stored at −80° C. after removal of small aliquots for determination of protein concentration by BCA. Samples equilibrated for total protein were analyzed by Wes™ capillary-gel immunodetection (ProteinSimple) using the AT8 clone of anti-phosphoTau (Invitrogen MN 1020) or total Tau (ABclonal A0002). Detected antigen was calculated by peak area (automated peak fit), and values are reported as AT8 normalized to total Tau.

C. elegans strain CL4176 = assay: Amyloid-associated paralysis in C. elegans strain CL4176; format: in vivo; conditions: after induction of Aβ1-42 in muscle (FIG. 5)
SH-SY5Y-APPSw cells = assay: Thioflavin-T staining of amyloid-like aggregates in SH-SY5Y-APPSw cells; format: cell-based, human
Protocol: Several TDZD-conjugated drugs (putative GSK-3 inhibitors) were evaluated for their ability to reduce accumulation of protein aggregates, and for protection against aggregation-associated end-points in the following model systems: (i.) SH-SY5Y-APPSw, a neuroblastoma cell line expressing the Swedish mutation of Amyloid Precursor Protein (APPSw), and thus predisposed to form β-amyloid deposits; (ii.) C. elegans strain CL4176, a model of Alzheimer-like amyloidopathy that can be induced to express human Aβ1-42 in muscle, or may express it at a lower level without induction; (iii.) C. elegans strain AM141, a model of Huntington-like polyglutamine aggregation that constitutively expresses Q40::YFP (a tract of 40 glutamines fused in-frame to yellow fluorescent protein) in muscle cells and forms aggregates progressively with adult aging. The TDZD analog PNR-962 (a putative GSK-3 inhibitor) and other related compounds (not shown) were protective in all aggregation assays.
First, the effects of TDZD analogues were tested on the human neuroblastoma cell line SH-SY5Y-APPSw, a model of Alzheimer-like amyloid aggregation expressing the “Sw” mutant form of Amyloid Precursor Protein, APP. These drugs all produced significant reductions in amyloid-like aggregates, by 30-50% as quantified by thioflavin-T staining intensity (data for PNR-962 are shown in FIG. 4). Modified TDZD-8 analogues PNR-962 and BSK-179 are more anti-aggregative than TDZD-8, lowering total amyloid-staining intensity by a further 14% (data not shown).
Following previously described experimental procedures (Liu, et al. (2005). S100B-induced microglial and neuronal IL-1 expression is mediated by cell type-specific transcription factors. Journal of Neurochemistry. 92(3): 546-553), SH-SY5Y-APPSw neuronal cells expressing an aggregation-prone double mutant of amyloid precursor protein (APPSw) were cultured in DMEM plus 10% (v/v) fetal bovine serum (FBS) at 37° C. Cells were suspended in trypsin/EDTA and rinsed in PBS prior to re-plating or harvesting. […] Human neuroblastoma cells were treated with PNR962, either simultaneous with sAPPα or beginning 1 h prior to sAPPα addition (pre-treatment) in order to ascertain the protective benefits of PNR962 on protein aggregation in human neuroblastoma cell lines. A similar experimental procedure was followed to examine the effect of treatment with these analogs on non-neuronal human cells, exposing human embryonic kidney cells (HEK) that express tau-like aggregates (found in AD-associated diseases) to 0.001, 0.01, and 1-μM doses of TDZD-8 and its analogues.
To observe the protective effects of the novel TDZD analogs on protein aggregation in SY5Y-APPSw cells, using DMEM medium containing 10% fetal calf serum in […], cells were cultured at 37′C for 26 hrs allowing cells to approximately double in number. After 48 h of cell incubation in the presence of specified concentrations of drug or vehicle, cells were fixed 15 min in formaldehyde (4% v/v), washed, and stained 20 min at ˜22° C. in a dark container with 0.1% w/v Thioflavin T mixed with DAPI (1 μg/ml; Life Technologies, Grand Island, N.Y., USA). […] The intensity of aggregate/thioflavin-T fluorescence per field was quantified via an Image J plug-in developed in-house, and normalized to the number of DAPI^+ nuclei counted per field, to obtain an average intensity of aggregates per cell for each treatment.

Compound: O=c1sn(CCI)c(=O)n1Cc1ccccc1 [PNR-962]
- lifespan (wild-type nematodes): increased
- tau hyperphosphorylation (tau hyperphosphorylation): suppression of tau hyperphosphorylation
- paralysis rescued / reduced (C. elegans strain CL4176): > 75%
- protein aggregation (SH-SY5Y-APPSw cells; 5 μM (FIG. 4)): reduces protein aggregation
- further lowering of total amyloid-staining intensity relative to TDZD-8 (SH-SY5Y-APPSw cells; data not shown): 14%
